Patent US20230174486A1, “NON-LYSOSOMAL GLUCOSYLCERAMIDASE INHIBITORS AND USES THEREOF” (ALECTOS THERAPEUTICS lNC., priority 2020, published 2023)

How the values were obtained:
human GBA2 = target: T1, human GBA2 (Homo sapiens, UniProt Q9HCG7); assay: Inhibition of GBA2 in cell lysate (4-methylumbelliferone-β-D glucopyranoside substrate); type: biochemical; details: homogenate of HEK293T cells stably overexpressing human GBA2, pH 5.5, 37° C., GCase inhibitor present
T1 construct: cellular homogenate
T1 sequence (Q9HCG7 1-927): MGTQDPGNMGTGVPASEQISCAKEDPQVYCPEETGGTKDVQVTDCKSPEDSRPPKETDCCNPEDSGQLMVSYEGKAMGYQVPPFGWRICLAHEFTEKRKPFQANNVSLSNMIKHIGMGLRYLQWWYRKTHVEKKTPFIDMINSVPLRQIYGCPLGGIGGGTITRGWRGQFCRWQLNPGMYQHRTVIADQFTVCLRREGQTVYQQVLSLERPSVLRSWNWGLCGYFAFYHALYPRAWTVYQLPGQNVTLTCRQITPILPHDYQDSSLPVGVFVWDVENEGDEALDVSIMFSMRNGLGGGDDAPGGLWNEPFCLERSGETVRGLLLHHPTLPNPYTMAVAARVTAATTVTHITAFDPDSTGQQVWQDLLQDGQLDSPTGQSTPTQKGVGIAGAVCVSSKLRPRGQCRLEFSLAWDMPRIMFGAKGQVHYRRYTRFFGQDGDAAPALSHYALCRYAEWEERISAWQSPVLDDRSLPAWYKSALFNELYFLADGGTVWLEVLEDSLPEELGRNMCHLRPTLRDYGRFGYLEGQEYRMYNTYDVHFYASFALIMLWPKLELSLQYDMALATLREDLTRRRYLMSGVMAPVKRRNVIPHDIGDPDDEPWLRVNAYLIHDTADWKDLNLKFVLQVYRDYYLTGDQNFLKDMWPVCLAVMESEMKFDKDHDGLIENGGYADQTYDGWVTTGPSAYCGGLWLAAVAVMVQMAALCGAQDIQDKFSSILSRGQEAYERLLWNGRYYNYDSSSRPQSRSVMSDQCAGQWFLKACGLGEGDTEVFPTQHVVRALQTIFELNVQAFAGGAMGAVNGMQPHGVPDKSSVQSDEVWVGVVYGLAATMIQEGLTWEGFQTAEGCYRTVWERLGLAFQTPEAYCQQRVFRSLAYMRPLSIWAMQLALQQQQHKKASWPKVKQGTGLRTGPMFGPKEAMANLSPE
Method: Stable GBA2-expressing HEK293T cells were generated as follows. The PCR-amplified human GBA2 (GBA2 nucleotide accession number BC011363) using the following primers: Sense 5’---CGCAAATGGGCGGTAGGCGTG---3’ and antisense 5’---TAGTCAGCCATGGGGCGGAGA ---3’) was cloned into pLenti-GIII-CMV by ABM Inc. The correctness of the construct was verified by sequencing. Lentivirus particles containing GBA2 in the pLenti-GIII-CMV plasmid were prepared using a third Generation Virus Packaging Mix (ABM cat# LV053-G074) in HEK293T cells and supplied as a virus particle suspension. The virus suspension was used for infection of HEK293T cells. Cell populations stably expressing human GBA2 were selected using puromycin for several weeks as determined by activity assays and western blot.
Various concentrations of test compounds were prepared in DMSO and then diluted into buffer consisting of 100 mM citric acid, 200 mM disodium phosphate with 1% v/v C10E6, pH 5.5. Cellular homogenates (0.25 mg/mL) of the stable HEK293T-overexpressing GBA2 cell line were preincubated for 10 min on ice with an inhibitor of GCase (20 µM (6R,7R,8S)-8-ethyl-4-azaspiro[2.5]octane-6,7-diol). The reaction solution consisted of 20 µL of 750 µM 4-methylumbelliferone-β-D glucopyranoside in 5% DMSO in the same buffer, 20 µL of GBA2-cellular homogenate pre-treated with (6R,7R,8S)-8-ethyl-4-azaspiro[2.5]octane-6,7-diol and 20 µL of various concentrations of test compound in 10% DMSO in the same buffer. The final concentrations in the reaction were 0.083 mg/mL GBA2-cellular homogenate, 250 µM 4-methylumbelliferone-β-D glucopyranoside, and various concentrations of inhibitor. The inhibitor and GBA2-cellular homogenate were preincubated together for 5 min at 37° C. The reaction was initiated by addition of substrate and allowed to proceed for 20 min at 37° C. to assess GBA2 activity. Reactions were stopped by the addition of an equal volume (60 µL) of 0.5 M NaOH, 0.3 M glycine, pH 10.5. Fluorescence was measured on a Biotek Synergy H4 plate reader at wavelengths of 365 nm for excitation and 450 nm for emission. Incubations without added enzyme or added inhibitors were used to define no enzyme activity and maximal enzyme activity, respectively. IC50 values were determined by fitting the data to a log[inhibitor concentration] versus response curve using GraphPad Prism. IC50 values were calculated as the concentration of inhibitor required to inhibit GBA2 activity by 50%.

[1] = target: T2, human non-lysosomal glucosylceramidase (GBA2) (Homo sapiens, UniProt Q9HCG7); assay: Binding specificity for GBA2 over other molecules (ratio of Ki or IC50 values); type: biochemical; details: qualitative statement, no values or other enzyme given
T2 sequence (Q9HCG7 1-927): T1 sequence (Q9HCG7 1-927)
From the text: In some embodiments, one or more of the compounds according to the invention may specifically bind a GBA2. In alternative embodiments, one or more of the compounds according to the invention may specifically bind the active site of a GBA2. […] In alternative embodiments, one or more of the compounds according to the invention may specifically bind the human non-lysosomal glucosylceramidase (GBA2) over the human lysosomal glucosylceramidase (GCase) and/or the human cytosolic glucosylceramidase (GBA3). In alternative embodiments, one or more of the compounds according to the invention may specifically bind the human non-lysosomal glucosylceramidase (GBA2) over the human glucosylceramide synthase (GCS). In alternative embodiments, one or more of the compounds according to the invention may specifically bind the human non-lysosomal glucosylceramidase (GBA2) over an intestinal alpha-glucosidase, where the intestinal alpha-glucosidase may be a sucrase-isomaltase or a maltase-glucoamylase.

SMILES: OC[C@H]1[C@@H](O)[C@H](O)[C@@H](O)CN1CCc1c(F)cc(C2CCOCC2)cc1F [Example 21, (2S,3R,4R,5S)-1-(2,6-difluoro-4-(tetrahydro-2H-pyran-4-yl)phenethyl)-2-(hydroxymethyl)piperidine-3,4,5-triol]
- GBA2 IC50 (human GBA2): ∗∗∗
- binding specificity, Ki(other molecule)/Ki(GBA2) or IC50(other molecule)/IC50(GBA2) [1]: enhanced binding specificity

SMILES: CCCCOc1ccc(CCN2C[C@H](O)[C@@H](O)[C@H](O)[C@@H]2CO)cc1 [Example 22, (2S,3R,4R,5S)-1-(4-butoxyphenethyl)-2-(hydroxymethyl)piperidine-3,4,5-triol]
- GBA2 IC50 (human GBA2): ∗∗∗
- binding specificity, Ki(other molecule)/Ki(GBA2) or IC50(other molecule)/IC50(GBA2) [1]: enhanced binding specificity

SMILES: CCCCOc1cc(F)c(CCN2C[C@H](O)[C@@H](O)[C@H](O)[C@@H]2CO)c(F)c1 [Example 23, (2S,3R,4R,5S)-1-(4-butoxy-2,6-difluorophenethyl)-2-(hydroxymethyl)piperidine-3,4,5-triol]
- GBA2 IC50 (human GBA2): ∗∗∗
- binding specificity, Ki(other molecule)/Ki(GBA2) or IC50(other molecule)/IC50(GBA2) [1]: enhanced binding specificity

SMILES: OC[C@H]1[C@@H](O)[C@H](O)[C@@H](O)CN1CC1CCN(c2ccc(F)cc2)CC1 [Example 24, (2S,3R,4R,5S)-1-((1-(4-fluorophenyl)piperidin-4-yl)methyl)-2-(hydroxymethyl)piperidine-3,4,5-triol]
- GBA2 IC50 (human GBA2): ∗∗∗
- binding specificity, Ki(other molecule)/Ki(GBA2) or IC50(other molecule)/IC50(GBA2) [1]: enhanced binding specificity

SMILES: OC[C@H]1[C@@H](O)[C@H](O)[C@@H](O)CN1C[C@H]1CCN(c2ncccc2C(F)(F)F)C1 [Example 25, (2S,3R,4R,5S)-2-(hydroxymethyl)-1—(((R)—1-(3-(trifluoromethyl)pyridin-2-yl)pyrrolidin-3-yl)methyl)piperidine-3,4,5-triol]
- GBA2 IC50 (human GBA2): ∗∗∗
- binding specificity, Ki(other molecule)/Ki(GBA2) or IC50(other molecule)/IC50(GBA2) [1]: enhanced binding specificity

SMILES: OC[C@H]1[C@@H](O)[C@H](O)[C@@H](O)CN1C[C@@H]1CCN(c2ncccc2C(F)(F)F)C1 [Example 27, (2S,3R,4R,5S)-2-(hydroxymethyl)-1—(((S)—1-(3-(trifluoromethyl)pyridin-2-yl)pyrrolidin-3-yl)methyl)piperidine-3,4,5-triol]
- GBA2 IC50 (human GBA2): ∗∗∗
- binding specificity, Ki(other molecule)/Ki(GBA2) or IC50(other molecule)/IC50(GBA2) [1]: enhanced binding specificity

SMILES: OC[C@H]1[C@@H](O)[C@H](O)[C@@H](O)CN1C[C@@H]1CCN(c2nc(C(F)(F)F)cs2)C1 [Example 28, (2S,3R,4R,5S)-2-(hydroxymethyl)-1—(((S)—1-(4-(trifluoromethyl)thiazol-2-yl)pyrrolidin-3-yl)methyl)piperidine-3,4,5-triol]
- GBA2 IC50 (human GBA2): ∗∗∗
- binding specificity, Ki(other molecule)/Ki(GBA2) or IC50(other molecule)/IC50(GBA2) [1]: enhanced binding specificity

SMILES: OC[C@H]1[C@@H](O)[C@H](O)[C@@H](O)CN1C[C@H]1CCCN(c2ncccc2C(F)(F)F)C1 [Example 29, (2S,3R,4R,5S)-2-(hydroxymethyl)-1—(((R)—1-(3-(trifluoromethyl)pyridin-2-yl)piperidin-3-yl)methyl)piperidine-3,4,5-triol]
- GBA2 IC50 (human GBA2): ∗∗∗
- binding specificity, Ki(other molecule)/Ki(GBA2) or IC50(other molecule)/IC50(GBA2) [1]: enhanced binding specificity

SMILES: OC[C@H]1[C@@H](O)[C@H](O)[C@@H](O)CN1C[C@@H]1CCCN(c2ncccc2C(F)(F)F)C1 [Example 31, (2S,3R,4R,5S)-2-(hydroxymethyl)-1—(((S)—1-(3-(trifluoromethyl)pyridin-2-yl)piperidin-3-yl)methyl)piperidine-3,4,5-triol]
- GBA2 IC50 (human GBA2): ∗∗∗
- binding specificity, Ki(other molecule)/Ki(GBA2) or IC50(other molecule)/IC50(GBA2) [1]: enhanced binding specificity

SMILES: OC[C@H]1[C@@H](O)[C@H](O)[C@@H](O)CN1C[C@@H]1CCCN(c2nc(C(F)(F)F)cs2)C1 [Example 32, (2S,3R,4R,5S)-2-(hydroxymethyl)-1—(((S)—1-(4-(trifluoromethyl)thiazol-2-yl)piperidin-3-yl)methyl)piperidine-3,4,5-triol]
- GBA2 IC50 (human GBA2): ∗∗∗
- binding specificity, Ki(other molecule)/Ki(GBA2) or IC50(other molecule)/IC50(GBA2) [1]: enhanced binding specificity

SMILES: OC[C@H]1[C@@H](O)[C@H](O)[C@@H](O)CN1C[C@H]1CC[C@@H](C(F)F)CC1 [Example 311, (2S,3R,4R,5S)-1-(((1s,4R)-4-(difluoromethyl)cyclohexyl)methyl)-2-(hydroxymethyl)piperidine-3,4,5-triol]
- GBA2 IC50 (human GBA2): ∗∗∗
- binding specificity, Ki(other molecule)/Ki(GBA2) or IC50(other molecule)/IC50(GBA2) [1]: enhanced binding specificity

SMILES: OC[C@H]1[C@@H](O)[C@H](O)[C@@H](O)CN1C[C@H]1CC[C@H](C(F)F)CC1 [Example 312, (2S,3R,4R,5S)-1-(((1r,4S)-4-(difluoromethyl)cyclohexyl)methyl)-2-(hydroxymethyl)piperidine-3,4,5-triol]
- GBA2 IC50 (human GBA2): ∗∗∗
- binding specificity, Ki(other molecule)/Ki(GBA2) or IC50(other molecule)/IC50(GBA2) [1]: enhanced binding specificity

SMILES: CC(F)(F)[C@H]1CC[C@@H](CN2C[C@H](O)[C@@H](O)[C@H](O)[C@@H]2CO)CC1 [Example 313, (2S,3R,4R,5S)-1-(((1s,4R)-4-(1,1-difluoroethyl)cyclohexyl)methyl)-2-(hydroxymethyl)piperidine-3,4,5-triol]
- GBA2 IC50 (human GBA2): ∗∗∗
- binding specificity, Ki(other molecule)/Ki(GBA2) or IC50(other molecule)/IC50(GBA2) [1]: enhanced binding specificity

SMILES: CC(F)(F)[C@H]1CC[C@H](CN2C[C@H](O)[C@@H](O)[C@H](O)[C@@H]2CO)CC1 [Example 314, (2S,3R,4R,5S)-1-(((1r,4S)-4-(1,1-difluoroethyl)cyclohexyl)methyl)-2-(hydroxymethyl)piperidine-3,4,5-triol]
- GBA2 IC50 (human GBA2): ∗∗∗
- binding specificity, Ki(other molecule)/Ki(GBA2) or IC50(other molecule)/IC50(GBA2) [1]: enhanced binding specificity
